Reference: the supplement of paper PMC12463676, “Small-molecule dissolution of stress granules by redox modulation benefits ALS models” (Nature Chemical Biology, 2025)

Experiments:
lipoamide = compound: NC(=O)CCCCC1CCSS1 [lipoamide]; test: thermal stability z-score vs DMSO; higher = more thermally stabilized by treatment; conditions: HeLa, lipoamide concentration 100 µM
Method: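 Cellular thermal proteome profiling in HeLa cells. Cells were treated with 100 µM lipoamide for 1 h, with or without 1 mM arsenate for a further 1 h, then heated to ten temperatures (37-66.3 °C), and soluble protein was quantified by TMT mass spectrometry relative to 0.1% DMSO controls. The thermal stability score (sum of log2 fold changes minus the abundance score) was transformed to a z-score; mean of n = 3 experiments.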

potassium arsenate = compound: O=[As]([O-])(O)O.[K+] [potassium arsenate]; test: as above; conditions: HeLa; arsenate concentration 1 mM
Method: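 Cellular thermal proteome profiling in HeLa cells treated with 1 mM arsenate for 1 h (DMSO pretreatment), heated to ten temperatures (37-66.3 °C). Soluble protein was quantified by TMT mass spectrometry relative to DMSO controls; the thermal stability score was transformed to a z-score; mean of n = 3 experiments.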

[1] = arsenate co-treatment: 1 mM arsenate 1 h
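Further: each temperature applied for 3 min, abundance score taken as mean log2 fold change at the two lowest temperatures, z-score obtained by mean subtraction and division by SD.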

Sequence of UniProt Q9Y6K5 (Q9Y6K5 whole entry): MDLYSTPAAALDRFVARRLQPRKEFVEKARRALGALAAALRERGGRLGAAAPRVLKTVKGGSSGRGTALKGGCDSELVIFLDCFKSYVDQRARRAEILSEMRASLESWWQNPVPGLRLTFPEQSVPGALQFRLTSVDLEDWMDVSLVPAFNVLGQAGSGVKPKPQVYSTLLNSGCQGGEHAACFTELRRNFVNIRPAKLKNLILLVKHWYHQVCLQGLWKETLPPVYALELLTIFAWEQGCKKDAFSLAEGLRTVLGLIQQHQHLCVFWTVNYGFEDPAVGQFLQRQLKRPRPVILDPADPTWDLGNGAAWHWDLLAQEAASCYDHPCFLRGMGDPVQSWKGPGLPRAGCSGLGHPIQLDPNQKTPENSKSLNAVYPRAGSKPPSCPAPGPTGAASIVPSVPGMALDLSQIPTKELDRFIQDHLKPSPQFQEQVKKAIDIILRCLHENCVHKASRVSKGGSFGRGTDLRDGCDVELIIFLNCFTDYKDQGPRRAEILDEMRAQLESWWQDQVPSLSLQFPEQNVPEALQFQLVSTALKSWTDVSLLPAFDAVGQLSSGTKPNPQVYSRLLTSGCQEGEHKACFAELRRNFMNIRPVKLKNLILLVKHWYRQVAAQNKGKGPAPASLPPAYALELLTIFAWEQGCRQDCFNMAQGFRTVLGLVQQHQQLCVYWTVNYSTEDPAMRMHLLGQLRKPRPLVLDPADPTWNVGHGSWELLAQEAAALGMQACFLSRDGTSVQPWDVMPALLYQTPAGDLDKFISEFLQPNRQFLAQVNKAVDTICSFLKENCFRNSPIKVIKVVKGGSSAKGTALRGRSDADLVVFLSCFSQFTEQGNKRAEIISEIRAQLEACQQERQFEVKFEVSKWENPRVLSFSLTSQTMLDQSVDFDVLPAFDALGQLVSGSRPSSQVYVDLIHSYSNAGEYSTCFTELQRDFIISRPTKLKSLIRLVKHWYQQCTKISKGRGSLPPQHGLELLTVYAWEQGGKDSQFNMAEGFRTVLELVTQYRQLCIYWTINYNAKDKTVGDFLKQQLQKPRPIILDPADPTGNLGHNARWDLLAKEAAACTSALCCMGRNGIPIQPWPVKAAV
Sequence of UniProt O75030 (O75030 whole entry): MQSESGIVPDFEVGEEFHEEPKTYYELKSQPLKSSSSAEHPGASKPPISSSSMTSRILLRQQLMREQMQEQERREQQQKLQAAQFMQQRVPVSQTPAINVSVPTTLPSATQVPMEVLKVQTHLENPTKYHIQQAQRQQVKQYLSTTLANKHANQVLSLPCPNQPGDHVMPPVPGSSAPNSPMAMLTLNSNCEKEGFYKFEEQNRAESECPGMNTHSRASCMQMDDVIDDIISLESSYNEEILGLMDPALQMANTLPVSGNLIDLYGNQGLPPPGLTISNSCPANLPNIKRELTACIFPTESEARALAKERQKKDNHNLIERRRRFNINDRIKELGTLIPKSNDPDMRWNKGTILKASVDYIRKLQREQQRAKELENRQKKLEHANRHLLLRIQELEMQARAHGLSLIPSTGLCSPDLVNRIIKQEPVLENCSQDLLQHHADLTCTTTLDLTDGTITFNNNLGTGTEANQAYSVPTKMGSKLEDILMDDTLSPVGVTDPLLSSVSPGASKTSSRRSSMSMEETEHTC
Sequence of UniProt Q6P4H8 (Q6P4H8 whole entry): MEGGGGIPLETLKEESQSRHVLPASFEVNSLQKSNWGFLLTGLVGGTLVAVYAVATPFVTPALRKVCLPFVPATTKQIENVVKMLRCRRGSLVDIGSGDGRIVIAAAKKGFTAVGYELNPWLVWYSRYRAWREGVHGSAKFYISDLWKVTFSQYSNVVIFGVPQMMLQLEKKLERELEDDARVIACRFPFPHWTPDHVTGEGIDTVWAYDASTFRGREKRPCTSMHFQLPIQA
Sequence of UniProt Q92734 (Q92734 whole entry): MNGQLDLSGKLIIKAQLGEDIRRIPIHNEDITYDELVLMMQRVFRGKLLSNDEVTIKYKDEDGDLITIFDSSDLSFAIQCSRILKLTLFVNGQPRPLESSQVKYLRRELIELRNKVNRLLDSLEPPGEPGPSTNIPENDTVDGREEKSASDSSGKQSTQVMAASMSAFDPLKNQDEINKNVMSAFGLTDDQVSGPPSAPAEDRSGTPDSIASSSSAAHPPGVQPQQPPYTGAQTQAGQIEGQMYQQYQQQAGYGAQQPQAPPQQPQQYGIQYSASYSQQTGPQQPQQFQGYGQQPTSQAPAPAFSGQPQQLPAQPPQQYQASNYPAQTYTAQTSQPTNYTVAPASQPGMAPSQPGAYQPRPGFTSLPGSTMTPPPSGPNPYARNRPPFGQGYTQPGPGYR
Sequence of UniProt Q9NYL2 (Q9NYL2 whole entry, looked up): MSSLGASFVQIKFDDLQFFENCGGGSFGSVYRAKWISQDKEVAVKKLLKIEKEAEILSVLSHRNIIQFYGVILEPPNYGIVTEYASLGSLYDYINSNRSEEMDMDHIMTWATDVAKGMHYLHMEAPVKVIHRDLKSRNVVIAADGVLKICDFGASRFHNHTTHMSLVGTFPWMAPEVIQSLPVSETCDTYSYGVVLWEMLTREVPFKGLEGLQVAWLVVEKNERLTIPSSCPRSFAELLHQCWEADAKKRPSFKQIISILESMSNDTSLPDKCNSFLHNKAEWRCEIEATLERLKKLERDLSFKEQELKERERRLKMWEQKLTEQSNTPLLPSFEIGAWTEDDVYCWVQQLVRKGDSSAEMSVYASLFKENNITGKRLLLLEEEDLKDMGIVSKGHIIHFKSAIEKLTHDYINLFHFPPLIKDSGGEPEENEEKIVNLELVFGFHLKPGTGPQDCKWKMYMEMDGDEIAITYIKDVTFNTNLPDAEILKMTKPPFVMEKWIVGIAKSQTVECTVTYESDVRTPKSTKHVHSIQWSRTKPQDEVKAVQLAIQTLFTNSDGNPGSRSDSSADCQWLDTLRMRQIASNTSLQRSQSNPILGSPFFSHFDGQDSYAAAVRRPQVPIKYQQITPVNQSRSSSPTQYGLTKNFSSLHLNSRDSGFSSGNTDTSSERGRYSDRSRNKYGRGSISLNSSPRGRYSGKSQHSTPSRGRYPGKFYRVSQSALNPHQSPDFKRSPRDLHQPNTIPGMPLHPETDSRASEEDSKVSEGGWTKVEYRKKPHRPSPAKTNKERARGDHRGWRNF
Sequence of UniProt Q92625 (Q92625 whole entry): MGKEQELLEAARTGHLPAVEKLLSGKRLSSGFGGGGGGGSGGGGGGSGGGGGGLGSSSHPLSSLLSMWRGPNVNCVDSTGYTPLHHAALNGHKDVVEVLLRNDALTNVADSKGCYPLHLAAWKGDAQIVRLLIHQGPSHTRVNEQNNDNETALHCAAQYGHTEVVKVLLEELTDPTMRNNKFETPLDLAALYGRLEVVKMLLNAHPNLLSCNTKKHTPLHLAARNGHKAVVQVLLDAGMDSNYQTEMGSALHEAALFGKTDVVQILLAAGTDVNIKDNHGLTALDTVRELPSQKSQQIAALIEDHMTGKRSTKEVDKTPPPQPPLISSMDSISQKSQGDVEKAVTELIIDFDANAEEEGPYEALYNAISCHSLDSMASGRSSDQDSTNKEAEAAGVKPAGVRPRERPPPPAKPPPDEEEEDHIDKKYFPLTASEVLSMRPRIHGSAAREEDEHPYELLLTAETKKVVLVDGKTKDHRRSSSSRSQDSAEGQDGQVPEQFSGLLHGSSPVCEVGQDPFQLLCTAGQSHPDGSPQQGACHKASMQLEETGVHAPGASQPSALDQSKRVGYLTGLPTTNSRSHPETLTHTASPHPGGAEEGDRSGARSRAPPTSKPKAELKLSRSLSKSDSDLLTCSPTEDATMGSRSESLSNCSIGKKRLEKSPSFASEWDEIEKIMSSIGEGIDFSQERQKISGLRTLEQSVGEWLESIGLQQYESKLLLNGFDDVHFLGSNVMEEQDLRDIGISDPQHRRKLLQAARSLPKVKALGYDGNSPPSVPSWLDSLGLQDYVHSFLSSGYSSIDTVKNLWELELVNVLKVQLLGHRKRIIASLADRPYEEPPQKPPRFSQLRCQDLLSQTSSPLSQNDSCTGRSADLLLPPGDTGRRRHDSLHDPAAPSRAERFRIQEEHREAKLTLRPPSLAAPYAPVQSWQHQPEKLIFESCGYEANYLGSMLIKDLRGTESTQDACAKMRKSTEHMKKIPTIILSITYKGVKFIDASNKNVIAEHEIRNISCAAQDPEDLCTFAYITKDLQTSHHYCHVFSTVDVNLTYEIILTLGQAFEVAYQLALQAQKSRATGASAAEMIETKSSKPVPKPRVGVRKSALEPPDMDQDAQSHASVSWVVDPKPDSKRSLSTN
Sequence of UniProt O14908 (O14908 whole entry): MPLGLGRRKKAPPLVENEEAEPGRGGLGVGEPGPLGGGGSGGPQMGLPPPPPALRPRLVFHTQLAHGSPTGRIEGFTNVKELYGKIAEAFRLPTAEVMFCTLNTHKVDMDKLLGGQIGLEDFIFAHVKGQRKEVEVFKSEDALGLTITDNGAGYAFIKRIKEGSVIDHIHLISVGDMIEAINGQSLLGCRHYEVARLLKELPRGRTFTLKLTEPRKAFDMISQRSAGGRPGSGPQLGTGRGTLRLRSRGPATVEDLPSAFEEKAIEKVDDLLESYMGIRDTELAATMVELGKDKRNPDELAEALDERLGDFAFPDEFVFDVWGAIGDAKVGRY
Sequence of UniProt Q96CX2 (Q96CX2 whole entry): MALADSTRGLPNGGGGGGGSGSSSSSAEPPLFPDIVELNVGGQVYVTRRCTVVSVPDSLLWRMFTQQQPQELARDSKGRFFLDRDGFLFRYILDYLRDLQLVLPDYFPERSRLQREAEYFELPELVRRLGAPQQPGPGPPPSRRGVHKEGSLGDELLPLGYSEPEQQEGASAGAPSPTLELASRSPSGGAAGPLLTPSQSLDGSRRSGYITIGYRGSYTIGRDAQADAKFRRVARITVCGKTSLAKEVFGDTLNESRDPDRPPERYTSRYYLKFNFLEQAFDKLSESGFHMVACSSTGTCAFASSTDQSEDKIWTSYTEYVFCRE
Sequence of UniProt Q9NS69 (Q9NS69 whole entry): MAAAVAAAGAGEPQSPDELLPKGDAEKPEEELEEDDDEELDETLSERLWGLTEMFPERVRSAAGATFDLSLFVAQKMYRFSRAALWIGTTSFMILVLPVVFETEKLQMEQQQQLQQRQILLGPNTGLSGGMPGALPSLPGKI

Target	thermal stability z-score (lipoamide; [1])	thermal stability z-score (lipoamide; arsenate co-treatment: none)	thermal stability z-score (potassium arsenate)
ZAK (UniProt Q9NYL2)	-0.237	-0.237	-0.105
RASA3 (UniProt Q14644)	0.0194	0.0519	0.0995
MRM3 (UniProt Q9HC36)	-0.128	-0.165	-0.218
MASTL (UniProt Q96GX5)	-0.0186	-0.102	-0.0433
KCTD12 (UniProt Q96CX2)	0.867	0.7	1.37
OAS3 (UniProt Q9Y6K5)	-0.0852	0.257	-0.07
ASF1B (UniProt Q9NVP2)	-0.0916	-0.0291	-0.169
HADH (UniProt Q16836)	0.136	0.477	-0.432
MITF (UniProt O75030)	-0.413	-0.377	0.297
SLC18B1 (UniProt Q6NT16)	-0.405	-0.045	-0.173
VMP1 (UniProt Q96GC9)	-1.19	-1.69	-0.372
OGFOD3 (UniProt Q6PK18)	0.0324	-0.274	-0.0712
TLN1 (UniProt Q9Y490)	0.266	0.266	-0.682
GIPC1 (UniProt O14908)	-0.301	-0.267	-0.251
EIF4H (UniProt Q15056)	0.493	0.714	0.688
TOMM22 (UniProt Q9NS69)	0.165	0.384	0.468

Target	thermal stability z-score (lipoamide; [1])	thermal stability z-score (lipoamide; arsenate co-treatment: none)	thermal stability z-score (potassium arsenate)
PLAA (UniProt Q9Y263)	0.0745	-0.41	-0.0864
PLEKHB2 (UniProt Q96CS7)	-0.698	-0.101	0.675
COA7 (UniProt Q96BR5)	0.203	0.0661	-0.364
ANKS1A (UniProt Q92625)	-0.553	0.198	0.294
TGFB1 (UniProt P01137)	-2.9	-3.34	-0.306
PGM2 (UniProt Q96G03)	-0.0134	-0.155	-0.24
MSN (UniProt P26038)	0.727	0.377	-0.891
LCLAT1 (UniProt Q6UWP7)	1.1	0.0592	-2.38
TBCB (UniProt Q99426)	0.475	-0.253	-1.55
NQO1 (UniProt P15559)	0.825	0.331	0.174
LRCH1 (UniProt Q9Y2L9)	0.0183	0.0529	0.494
FAM173B (UniProt Q6P4H8)	-0.478	1.31	-0.0461
IGSF3 (UniProt O75054)	0.454	-0.247	-0.196
TBCK (UniProt Q8TEA7)	0.135	0.0192	-0.192
TFG (UniProt Q92734)	0.607	0.76	0.134
